In patent publication US5955500A (G. D. Searle & Co., priority 1997, dated 1999):
Several values for one entry are separate records, joined by “and”; a condition that tells them apart may be missing. Equal entries are not always repeated. Where two headings read alike, the source gives them in different places.

Tests used:
[1] = tested on: isolated working rat heart; conditions: S 100 ng/ml plus R 50-950 ng/ml cumulative
[2] = tested on: isolated working rat heart
canine heart = conditions: for AH time / Heart rate / Mean arterial pressure: mean ± SE
Method: Fourteen adult mongrel dogs of either sex weighing between 19 and 25 kg were prepared for chronic electrophysiologic investigation by implanting epicardial electrodes and an indwelling aortic catheter. The dogs were fasted overnight and initially anesthetized with halothane on the day of surgery. After tracheal intubation, anesthesia was maintained with isoflurane and oxygen via positive pressure ventilation to keep end tidal carbon dioxide within the normal range. Muscular relaxation was induced by pancuronium. A right thoracotomy was performed in the fifth intercostal space. Three bipolar electrode pairs were sutured to the epicardial surface of the right atrial appendage and on the right and left ventricular apex (FIG. 5). A bipolar electrode was sutured to the right atrium close to the anatomical region of the sinoatrial node. A bipolar plunge electrode was placed into base of the interventricular septum to record a His bundle electrogram. An indwelling arterial catheter was placed into the aorta through the left femoral artery after surgical exposure of the artery at the inner side of the hind limb. All electrode leads were subcutaneously tunneled and exited through the skin between the scapulae. Incisions were closed in anatomic fashion and standard postoperative methods of analgesia were provided with 0.015 mg/kg of buprenorphine (Buprenex®, Reckitt & Colman, Hull, UK) and two times of 25 mg/kg cefazolin (Cefazolin Sodium®, SoloPak Laboratories, Elk Groove Village, Ill.) and dogs were allowed to recover from surgery for a period of seven days prior to testing.
Electrical signals from the bipolar electrodes, after suitable amplification in a custom built preamplifier (gain 1000), were filtered in a separate custom designed and built common mode rejection amplifier with a bandpass filter of 10-1000 Hz and individually adjusted for signal strength (maximal gain 400). […] Right atrial appendage (RA), right ventricular apex (RVA) and His bundle electrograms (HB) were recorded, simultaneously. […] All measurements of conduction times were made during spontaneous sinus rhythm.
The His bundle electrode (HBE) was advanced into the base of the interatrial septum from the aortic root. The electrode was advanced from a point located just behind and to the right of the origin of the right coronary artery. The HBE was slowly advanced parallel to the aorta, inferiorly and slightly anteriorly until a well discernible His potential was recorded. AV conduction (AH) interval was measured as the time difference (ms) between the onset of the initial rapid deflection in the RA electrogram to the beginning of the His potential in the HB electrogram. His-ventricular (HV) conduction time interval (ms) was measured from the beginning of the His potential (HBE) to the initial deflection of the QRS complex wave (earliest left ventricular activation) in a simultaneously recorded surface ECG lead II.
As an indicator of automaticity, sinus node recovery time (SNRT) was determined by pacing the right atrial appendage (30 s at 180 and 200 beats/min at 2 msec pulse duration; 2×threshold). SNRT was measured from the last pacing spike to the first spontaneous atrial activity on the His bundle electrogram after cessation of pacing (ms).
A timed extrastimulus (S2) was delivered 300 ms after the preceding pacing spike (S1).
Verapamil was dissolved in 5% dextrose and water ([…]).
During the postoperative period, each dog was trained to stand quietly in a sling during electrophysiological monitoring. Prior to measurement, electrical signals in each dog were monitored to verify the absence of spontaneous arrhythmias other-than normal respiratory sinus arrhythmias.
From the resting dog, 5 channel records were obtained at a sampling rate of 1 kHz per channel for 7 min to determine the following conduction intervals: AH, HV, QRS, QT and HR. A corrected QT interval [QTc=QT interval in ms/ (R-R interval in s)^1/2 ] was also calculated.

[3] = for Concentration in octanol / Concentration in water: pH 5, individual replicates
[4] = S 100 ng/ml, R 950 ng/ml, R/S ratio 9.5

**Q.** With `COc1ccc(CCN(C)CCCC(C#N)(c2ccc(OC)c(OC)c2)C(C)C)cc1OC` (racemic) [R/S (2.0)] as the molecule, how does the “Cardiac output (CO), significance vs predrug” value [1] read?
**A.** The value was “n.s”.

**Q.** And the “Heart rate (HR), significance vs predrug” value [1]?
**A.** Its value is “n.s”.

**Q.** What about the “Peak systolic pressure (PSP), significance vs predrug” value [1] of the same molecule?
**A.** The value was “n.s”.

**Q.** What does the source list for `COc1ccc(CCN(C)CCCC(C#N)(c2ccc(OC)c(OC)c2)C(C)C)cc1OC` (racemic) [R/S (9.5)]?
**A.** Effect of mixture on heart rate, in words ([2]; R/S ratio 9.5): additive; Peak systolic pressure (PSP), significance vs predrug [2, 4]: n.s.

**Q.** For `COc1ccc(CCN(C)CCCC(C#N)(c2ccc(OC)c(OC)c2)C(C)C)cc1OC` (racemic) [20/80S], which AH time (canine heart; 0.1 mg/kg i.v., 0 min) is on record?
**A.** The AH time was 88 ± 5 ms.

**Q.** What about the Heart rate (canine heart; 0.1 mg/kg i.v., 0 min) of the same molecule?
**A.** Its Heart rate is 155 ± 13 beats per min.

**Q.** What about the Mean arterial pressure (canine heart; 0.1 mg/kg i.v., 0 min) of the same molecule?
**A.** Its Mean arterial pressure is 92 ± 4 mmHg.

**Q.** What about the AH time (canine heart; 0.1 mg/kg i.v., 1 min) of the same molecule?
**A.** Its AH time is 100 ± 5 ms.

**Q.** And the Heart rate (canine heart; 0.1 mg/kg i.v., 1 min)?
**A.** The Heart rate was 143 ± 11 beats per min.

**Q.** What about the Mean arterial pressure (canine heart; 0.1 mg/kg i.v., 1 min) of the same molecule?
**A.** Its Mean arterial pressure is 97 ± 3 mmHg.

**Q.** What about the AH time (canine heart; 0.1 mg/kg i.v., 2 min) of the same molecule?
**A.** Its AH time is 106 ± 5 ms.

**Q.** What about the Heart rate (canine heart; 0.1 mg/kg i.v., 2 min) of the same molecule?
**A.** The Heart rate was 127 ± 10 beats per min.

**Q.** And the Mean arterial pressure (canine heart; 0.1 mg/kg i.v., 2 min)?
**A.** Its Mean arterial pressure is 100 ± 3 mmHg.

**Q.** What about the AH time (canine heart; 0.1 mg/kg i.v., 3 min) of the same molecule?
**A.** Its AH time is 107 ± 5 ms.

**Q.** What about the Heart rate (canine heart; 0.1 mg/kg i.v., 3 min) of the same molecule?
**A.** The Heart rate was 124 ± 9 beats per min.

**Q.** And the Mean arterial pressure (canine heart; 0.1 mg/kg i.v., 3 min)?
**A.** The Mean arterial pressure was 100 ± 4 mmHg.

**Q.** What about the AH time (canine heart; 0.1 mg/kg i.v., 4 min) of the same molecule?
**A.** Its AH time is 111 ± 6 ms.

**Q.** What about the Heart rate (canine heart; 0.1 mg/kg i.v., 4 min) of the same molecule?
**A.** Its Heart rate is 113 ± 11 beats per min.

**Q.** What about the Mean arterial pressure (canine heart; 0.1 mg/kg i.v., 4 min) of the same molecule?
**A.** The Mean arterial pressure was 99 ± 4 mmHg.

**Q.** And the AH time (canine heart; 0.1 mg/kg i.v., 5 min)?
**A.** Its AH time is 112 ± 5 ms.

**Q.** What about the Heart rate (canine heart; 0.1 mg/kg i.v., 5 min) of the same molecule?
**A.** The Heart rate was 111 ± 8 beats per min.

**Q.** And the Mean arterial pressure (canine heart; 0.1 mg/kg i.v., 5 min)?
**A.** The Mean arterial pressure was 101 ± 4 mmHg.

**Q.** What about the AH time (canine heart; 0.2 mg/kg i.v., 0 min) of the same molecule?
**A.** Its AH time is 110 ± 10 ms.

**Q.** And the Heart rate (canine heart; 0.2 mg/kg i.v., 0 min)?
**A.** The Heart rate was 168 ± 10 beats per min.

**Q.** And the Mean arterial pressure (canine heart; 0.2 mg/kg i.v., 0 min)?
**A.** Its Mean arterial pressure is 84 ± 3 mmHg.

**Q.** And the AH time (canine heart; 0.2 mg/kg i.v., 1 min)?
**A.** Its AH time is 126 ± 11 ms.

**Q.** And the Heart rate (canine heart; 0.2 mg/kg i.v., 1 min)?
**A.** Its Heart rate is 166 ± 9 beats per min.

**Q.** What about the Mean arterial pressure (canine heart; 0.2 mg/kg i.v., 1 min) of the same molecule?
**A.** Its Mean arterial pressure is 87 ± 4 mmHg.

**Q.** And the AH time (canine heart; 0.2 mg/kg i.v., 2 min)?
**A.** The AH time was 133 ± 10 ms.

**Q.** And the Heart rate (canine heart; 0.2 mg/kg i.v., 2 min)?
**A.** The Heart rate was 154 ± 8 beats per min.

**Q.** And the Mean arterial pressure (canine heart; 0.2 mg/kg i.v., 2 min)?
**A.** Its Mean arterial pressure is 93 ± 5 mmHg.

**Q.** And the AH time (canine heart; 0.2 mg/kg i.v., 3 min)?
**A.** The AH time was 140 ± 12 ms.

**Q.** And the Heart rate (canine heart; 0.2 mg/kg i.v., 3 min)?
**A.** The Heart rate was 141 ± 11 beats per min.

**Q.** What about the Mean arterial pressure (canine heart; 0.2 mg/kg i.v., 3 min) of the same molecule?
**A.** The Mean arterial pressure was 94 ± 5 mmHg.

**Q.** What about the AH time (canine heart; 0.2 mg/kg i.v., 4 min) of the same molecule?
**A.** Its AH time is 127 ± 14 ms.

**Q.** What about the Heart rate (canine heart; 0.2 mg/kg i.v., 4 min) of the same molecule?
**A.** Its Heart rate is 155 ± 16 beats per min.

**Q.** And the Mean arterial pressure (canine heart; 0.2 mg/kg i.v., 4 min)?
**A.** The Mean arterial pressure was 97 ± 5 mmHg.

**Q.** What about the AH time (canine heart; 0.2 mg/kg i.v., 5 min) of the same molecule?
**A.** Its AH time is 130 ± 11 ms.

**Q.** What about the Heart rate (canine heart; 0.2 mg/kg i.v., 5 min) of the same molecule?
**A.** Its Heart rate is 146 ± 4 beats per min.

**Q.** What about the Mean arterial pressure (canine heart; 0.2 mg/kg i.v., 5 min) of the same molecule?
**A.** The Mean arterial pressure was 98 ± 3 mmHg.

**Q.** And the “Occurrence of AV conduction block” value (canine heart; 0.2 mg/kg i.v., listed as 20R/80S-verapamil)?
**A.** Its value is 5 animals.

**Q.** What about the “Occurrence of second and third degree AV conduction block” value (canine heart; 0.4 mg/kg i.v., listed as 20R/80S-verapamil) of the same molecule?
**A.** The value was “all”.

**Q.** What about the “Recovery of the decrease in MAP” value (canine heart; compared with any other groups) of the same molecule?
**A.** The value was “slower”.

**Q.** And the “Peak effect on HR, in words” value (canine heart; dog, in vivo)?
**A.** The value was “drastic increase in HR”.

**Q.** And the “QTc interval compared with 100R-verapamil, in words” value (canine heart; dog, in vivo)?
**A.** Its value is “significantly increased compared with 100R-verapamil”.

**Q.** What about the “Interaction between MAP and HR (multiple linear regression), in words” value (canine heart; increase in HR against drop in MAP) of the same molecule?
**A.** The value was “greatest rate of increase in HR as opposed to a drop in MAP”.

**Q.** And the “Eutectic compound identification (phase diagram based on Po/w)” value ([3]; pH 5)?
**A.** Its value is “eutectic compound”.

**Q.** And the Concentration in octanol ([3]; listed as 80)?
**A.** The Concentration in octanol was 4160 ng/mL and 4490 ng/mL and 3810 ng/mL.

**Q.** What about the Concentration in water ([3]; listed as 80) of the same molecule?
**A.** Its Concentration in water is 6950 ng/mL and 6930 ng/mL and 6920 ng/mL.

**Q.** What does the source list for `COc1ccc(CCN(C)CCC[C@@](C#N)(c2ccc(OC)c(OC)c2)C(C)C)cc1OC` [S-verapamil, reference compound]?
**A.** Concentration in octanol ([3]; listed as 100): 5150 ng/mL and 5290 ng/mL and 5530 ng/mL; Concentration in water ([3]; listed as 100): 4080 ng/mL and 4880 ng/mL and 6220 ng/mL; Reduction of peak systolic pressure and cardiac output, in words ([2]; S 100 ng/ml vs R 950 ng/ml): more effective at reducing peak systolic pressure (FIG. 2b) as well as cardiac output; Nature of cardiac effect (inotropic / chronotropic) ([2]; S 100 ng/ml, R 950 ng/ml): primarily an inotropic drug; Heart rate (HR), significance vs predrug [2, 4]: n.s.

**Q.** What does the source list for `COc1ccc(CCN(C)CCCC(C#N)(c2ccc(OC)c(OC)c2)C(C)C)cc1OC` (racemic) [R/S (0.5)]?
**A.** Cardiac output (CO), significance vs predrug [1]: n.s.; Heart rate (HR), significance vs predrug [1]: n.s.

**Q.** With `COc1ccc(CCN(C)CCCC(C#N)(c2ccc(OC)c(OC)c2)C(C)C)cc1OC` (racemic) [R/S (4.5)] as the molecule, how does the “Heart rate (HR), significance vs predrug” value [1] read?
**A.** Its value is “n.s”.

**Q.** And the “Peak systolic pressure (PSP), significance vs predrug” value [1]?
**A.** The value was “n.s”.
